Test results: patent US20070128217A1 (priority 2003, published 2007)

Tests used:
[1] = tested on: antibodies in sera from SARS patients (sera 1a, 1b, 2, 6, 37, 62, London, SARS-yellow, SARS-green); type: binding, human; set-up: Binding of serum 6 to linear peptides of protein X1 of SARS-CoV Urbani / Binding of serum 37 to linear peptides of protein X1 of SARS-CoV Urbani / Binding of serum 6 to looped/cyclic peptide (PEPSCAN-ELISA) / Binding of serum 37 to looped/cyclic peptide (PEPSCAN-ELISA) / Binding of serum 37 to looped/cyclic peptides of protein X1 of SARS-CoV Urbani / Binding of serum 6 to linear peptides of protein X2 / Binding of serum 37 to linear peptides of protein X2 / Binding of serum 37 to looped/cyclic peptides of protein X2 of SARS-CoV Urbani / Binding of serum 6 to linear peptides of protein M of SARS-CoV Urbani / Binding of serum 37 to linear peptides of protein M of SARS-CoV Urbani / Binding of serum 6 to looped/cyclic peptides of protein M of SARS-CoV Urbani / Binding of serum 37 to looped/cyclic peptides of protein M of SARS-CoV Urbani / Binding of serum 6 to linear peptides of protein X3 of SARS-CoV Urbani / Binding of serum 37 to linear peptides of protein X3 of SARS-CoV Urbani / Binding of serum 37 to looped/cyclic peptides of protein X3 of SARS-CoV Urbani / Binding of serum 6 to linear peptides of protein X4 of SARS-CoV Urbani / Binding of serum 37 to linear peptides of protein X4 of SARS-CoV Urbani / Binding of serum 37 to looped/cyclic peptides of protein X4 of SARS-CoV Urbani / Binding of serum 6 to linear peptides of protein X5 of SARS-CoV Urbani / Binding of serum 37 to linear peptides of protein X5 of SARS-CoV Urbani / Binding of serum 37 to looped/cyclic peptides of protein X5 of SARS-CoV Urbani / Binding of serum 6 to linear peptides of protein N of SARS-CoV Urbani / Binding of serum 37 to linear peptides of protein N of SARS-CoV Urbani / Binding of serum 6 to linear peptide (PEPSCAN-ELISA) / Binding of serum 1a to looped/cyclic peptides of protein N of SARS-CoV Urbani / Binding of serum 1b to looped/cyclic peptides of protein N of SARS-CoV Urbani / Binding of serum 2 to looped/cyclic peptides of protein N of SARS-CoV Urbani / Binding of serum 6 to looped/cyclic peptides of protein N of SARS-CoV Urbani / Binding of serum 37 to looped/cyclic peptides of protein N of SARS-CoV Urbani / Binding of serum 62 to looped/cyclic peptides of protein N of SARS-CoV Urbani / Binding of serum London to looped/cyclic peptides of protein N of SARS-CoV Urbani / Binding of serum SARS-green to looped/cyclic peptides of protein N of SARS-CoV Urbani: unit not given here
[2] = tested on: rabbit serum obtained by immunizing a rabbit with the SARS-CoV strain Frankfurt 1; type: binding; set-up: Binding of a rabbit serum to linear peptides / Binding of a rabbit serum to looped peptides / Rabbit serum linear peptides / Rabbit serum looped peptides / Binding of a rabbit serum to linear peptides of protein N of SARS-CoV Urbani (Rabbit serum linear peptides) / Binding of a rabbit serum to looped/cyclic peptides of protein N of SARS-CoV Urbani (Rabbit serum looped peptides): unit not given here
[3] = tested on: control sera (pooled serum of ten healthy LUMC hospital workers; commercial negative donor pooled serum from the Dutch bloodbank); type: binding, human; set-up: Binding of Control serum LUMC to linear peptides / Binding of Control serum Blood-bank to linear peptides / Binding of Control serum LUMC to looped peptides / Binding of Control Serum Blood-Bank to Looped peptides / Binding of Control serum LUMC to linear peptides of the protein M of SARS-CoV Urbani / Binding of Control serum Blood-bank to linear peptides of the protein M of SARS-CoV Urbani / Binding of Control serum LUMC to looped peptides of the protein M of SARS-CoV Urbani / Binding of Control Serum Blood-Bank to Looped peptides of the protein M of SARS-CoV Urbani: unit not given here

## FTTSLSLHKLLQTLV
[1]
  Binding of serum 1a to linear peptides of protein X2: 0.5
  Binding of serum 1a to looped/cyclic peptides of protein X2 of SARS-CoV Urbani: 2.1
  Binding of serum 1b to linear peptides of protein X2: 0.5
  Binding of serum 1b to looped/cyclic peptides of protein X2 of SARS-CoV Urbani: 2.5
  Binding of serum 2 to linear peptides of protein X2: 0.4
  Binding of serum 2 to looped/cyclic peptides of protein X2 of SARS-CoV Urbani: 1.2
  Binding of serum 6 to linear peptides of protein X2: 0.6
  Binding of serum 6 to looped/cyclic peptides of protein X2 of SARS-CoV Urbani: 0.8
  Binding of serum 37 to linear peptides of protein X2: 0.5
  Binding of serum 37 to looped/cyclic peptides of protein X2 of SARS-CoV Urbani: 1.3
  Binding of serum 62 to linear peptides of protein X2: 0.5
  Binding of serum 62 to looped/cyclic peptides of protein X2 of SARS-CoV Urbani: 1.7
  Binding of serum London to linear peptides of protein X2: 0.4
  Binding of serum London to looped/cyclic peptides of protein X2 of SARS-CoV Urbani: 1.0
  Binding of serum SARS-green to linear peptides of protein X2: 0.5
  Binding of serum SARS-green to looped/cyclic peptides of protein X2 of SARS-CoV Urbani: 1.7
  Binding of serum SARS-yellow to linear peptides of protein X2: 0.4
  Binding of serum SARS-yellow to looped/cyclic peptides of protein X2 of SARS-CoV Urbani: 1.3
[2]
  Binding of a rabbit serum to linear peptides: 0.1
  Binding of a rabbit serum to looped peptides: 0.9
[3]
  Binding of Control Serum Blood-Bank to Looped peptides: 2.0
  Binding of Control serum Blood-bank to linear peptides: 0.6
  Binding of Control serum LUMC to linear peptides: 0.5
  Binding of Control serum LUMC to looped peptides: 1.6

## PKEITVATSRTLSYY
[1]
  Binding of serum 1a to linear peptides of protein M of SARS-CoV Urbani: 0.6
  Binding of serum 1a to looped/cyclic peptides of protein M of SARS-CoV Urbani: 0.6
  Binding of serum 1b to linear peptides of protein M of SARS-CoV Urbani: 0.4
  Binding of serum 1b to looped/cyclic peptides of protein M of SARS-CoV Urbani: 0.6
  Binding of serum 2 to linear peptides of protein M of SARS-CoV Urbani: 0.5
  Binding of serum 2 to looped/cyclic peptides of protein M of SARS-CoV Urbani: 0.6
  Binding of serum 6 to linear peptides of protein M of SARS-CoV Urbani: 0.2
  Binding of serum 6 to looped/cyclic peptides of protein M of SARS-CoV Urbani: 0.7
  Binding of serum 37 to linear peptides of protein M of SARS-CoV Urbani: 0.8
  Binding of serum 37 to looped/cyclic peptides of protein M of SARS-CoV Urbani: 0.6
  Binding of serum 62 to linear peptides of protein M of SARS-CoV Urbani: 0.7
  Binding of serum 62 to looped/cyclic peptides of protein M of SARS-CoV Urbani: 0.6
  Binding of serum London to linear peptides of protein M of SARS-CoV Urbani: 0.3
  Binding of serum London to looped/cyclic peptides of protein M of SARS-CoV Urbani: 0.2
  Binding of serum SARS-green to linear peptides of protein M of SARS-CoV Urbani: 0.1
  Binding of serum SARS-green to looped/cyclic peptides of protein M of SARS-CoV Urbani: 0.4
  Binding of serum SARS-yellow to linear peptides of protein M of SARS-CoV Urbani: 0.1
  Binding of serum SARS-yellow to looped/cyclic peptides of protein M of SARS-CoV Urbani: 0.4
[2]
  Rabbit serum linear peptides: 0.5
  Rabbit serum looped peptides: 0.2
[3]
  Binding of Control Serum Blood-Bank to Looped peptides of the protein M of SARS-CoV Urbani: 0.6
  Binding of Control serum Blood-bank to linear peptides of the protein M of SARS-CoV Urbani: 0.5
  Binding of Control serum LUMC to linear peptides of the protein M of SARS-CoV Urbani: 0.3
  Binding of Control serum LUMC to looped peptides of the protein M of SARS-CoV Urbani: 0.6

## ELKQLLEQWNLVIGF
[1]
  Binding of serum 1a to linear peptides of protein M of SARS-CoV Urbani: 0.8
  Binding of serum 1a to looped/cyclic peptides of protein M of SARS-CoV Urbani: 0.6
  Binding of serum 1b to linear peptides of protein M of SARS-CoV Urbani: 0.8
  Binding of serum 1b to looped/cyclic peptides of protein M of SARS-CoV Urbani: 0.6
  Binding of serum 2 to linear peptides of protein M of SARS-CoV Urbani: 0.5
  Binding of serum 2 to looped/cyclic peptides of protein M of SARS-CoV Urbani: 0.5
  Binding of serum 6 to linear peptides of protein M of SARS-CoV Urbani: 0.6
  Binding of serum 6 to looped/cyclic peptides of protein M of SARS-CoV Urbani: 0.8
  Binding of serum 37 to linear peptides of protein M of SARS-CoV Urbani: 0.6
  Binding of serum 37 to looped/cyclic peptides of protein M of SARS-CoV Urbani: 0.7
  Binding of serum 62 to linear peptides of protein M of SARS-CoV Urbani: 0.5
  Binding of serum 62 to looped/cyclic peptides of protein M of SARS-CoV Urbani: 0.5
  Binding of serum London to linear peptides of protein M of SARS-CoV Urbani: 0.6
  Binding of serum London to looped/cyclic peptides of protein M of SARS-CoV Urbani: 0.3
  Binding of serum SARS-green to linear peptides of protein M of SARS-CoV Urbani: 0.5
  Binding of serum SARS-green to looped/cyclic peptides of protein M of SARS-CoV Urbani: 0.7
  Binding of serum SARS-yellow to linear peptides of protein M of SARS-CoV Urbani: 0.3
  Binding of serum SARS-yellow to looped/cyclic peptides of protein M of SARS-CoV Urbani: 0.9
[2]
  Rabbit serum linear peptides: 0.0
  Rabbit serum looped peptides: 0.2
[3]
  Binding of Control Serum Blood-Bank to Looped peptides of the protein M of SARS-CoV Urbani: 0.6
  Binding of Control serum Blood-bank to linear peptides of the protein M of SARS-CoV Urbani: 0.8
  Binding of Control serum LUMC to linear peptides of the protein M of SARS-CoV Urbani: 0.7
  Binding of Control serum LUMC to looped peptides of the protein M of SARS-CoV Urbani: 0.7
